The values below come from ChEMBL document CHEMBL1201862, “PubChem BioAssay data set” (2004).

SMILES strings stand for the structures.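 Each compound was tested at five concentrations against cells in 96-well plates for 48 hours. GI50 marks 50% less growth.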 Activity calls are given as the source filed them. Rule as the data show it: active = GI50 up to about 1.1 µM and inactive = higher. Non-standard residues stand in square brackets, D forms with d. Residues, ends and D or L forms follow the SMILES beside them. ξ: configuration not given here. *: point of attachment. ξNMeF = CNC(Cc1ccccc1)C(=O)O; NMeV = CN[C@H](C(=O)O)C(C)C; Boc = CC(C)(C)OC(=O)*; OBn = c1ccc(CO*)cc1

Among the test systems are SF-539; HCT-15; SK-MEL-5; SNB-19; SK-OV-3; HOP-92; RXF 393; CCRF-CEM; OVCAR-5; SF-268; A498; OVCAR-4; NCI-H522; UACC-62; OVCAR-8; MOLT-4.
What all share (assay): NCI-60 cell line screen, 48 h

Take `CCCCc1c2c(nc3c1CCCC3O)/C(=C/c1ccccc1)CCC2` (stereo not given): the GI50 was 28.1 µM (inactive) in the experiment on SF-539; 16 µM in the experiment with HCT-15; 21.7 µM (inactive) with SK-MEL-5; 43.1 µM (inactive) with SNB-19; 38.5 µM (inactive) with SK-OV-3; 38.7 µM (inactive) with HOP-92. Moreover, the GI50 with RXF 393 was 39.9 µM (inactive); in the experiment with CCRF-CEM it was 15.9 µM (inactive); with OVCAR-5, 32.8 µM (inactive); with SF-268, 31.3 µM (inactive); in the experiment with A498 it was 54.1 µM (inactive); with OVCAR-4, 63.7 µM (inactive). The GI50 was 21.7 µM (inactive) in the experiment on NCI-H522, 33.8 µM (inactive) with UACC-62, 32 µM (inactive) in the experiment on OVCAR-8 and 11.6 µM (inactive) in the experiment on MOLT-4.

Take `Cc1ccc(S(=O)(=O)NNC(=O)c2sc(-c3nc(C)c(C(=O)NNS(=O)(=O)c4ccc(C)cc4)s3)nc2C)cc1`: the GI50 in the experiment on SF-539 is > 100 µM (inactive); in the experiment on HCT-15, 47.1 µM; in the experiment on SK-MEL-5, 71.1 µM (inactive); in the experiment on SNB-19, > 100 µM (inactive); in the experiment with SK-OV-3, > 100 µM (inactive); in the experiment with HOP-92, 31 µM (inactive). For the same compound, the GI50 is > 100 µM (inactive) in the experiment on RXF 393; 45.6 µM (inactive) with CCRF-CEM; > 100 µM (inactive) in the experiment on OVCAR-5; > 100 µM (inactive) in the experiment on SF-268; > 100 µM (inactive) in the experiment with A498; 72.3 µM (inactive) with UACC-62. Moreover, the GI50 in the experiment with OVCAR-8 is > 100 µM (inactive); with MOLT-4, 42.4 µM (inactive).

Regarding `COC(=O)[C@]1(C)C(OC)=CC(=O)C2C1[C@H]1CCC[C@@H]21` (stereo not given in full), the GI50 is > 100 µM (inactive) in the experiment on SF-539; above 100 µM in the experiment with HCT-15; > 100 µM (inactive) in the experiment with SK-MEL-5; > 100 µM (inactive) in the experiment on SNB-19; > 100 µM (inactive) with SK-OV-3; > 100 µM (inactive) with HOP-92. Further, the GI50 in the experiment on RXF 393, in the experiment with CCRF-CEM, in the experiment with OVCAR-5, in the experiment with SF-268, with A498 and in the experiment with NCI-H522 was > 100 µM (inactive) in each case. Also, the GI50 with UACC-62, with OVCAR-8 and in the experiment with MOLT-4 was > 100 µM (inactive) throughout.

As to `CCN(CC)CCNc1ccc2ncn3c4ccccc4c(=O)c1c23`, the GI50 in the experiment on SF-539 is 5.86 µM (inactive); with HCT-15 it was 3.96 µM; in the experiment with SK-MEL-5 it was 3.52 µM (inactive); in the experiment on SNB-19, 9.84 µM (inactive); with SK-OV-3, 2.45 µM (inactive); in the experiment with HOP-92, 2.28 µM (inactive). Further, the GI50 with CCRF-CEM is 4.1 µM (inactive); in the experiment on OVCAR-5, 7.93 µM (inactive); in the experiment with SF-268, 3.99 µM (inactive); in the experiment with A498, 6.7 µM (inactive); in the experiment on OVCAR-4, 2.96 µM (inactive); in the experiment with NCI-H522, 2.26 µM (inactive). Further, the GI50 with UACC-62 was 3.91 µM (inactive); with OVCAR-8, 2.77 µM (inactive); in the experiment on MOLT-4, 2 µM (inactive).

For the compound `Brc1ccc2c(c1)C1C(CO2)C(c2ccccc2)=NN1c1ccccc1` (stereo not given), the GI50 was > 100 µM (inactive) in the experiment on SNB-19; > 100 µM (inactive) in the experiment with SK-OV-3; 57.3 µM (inactive) with HOP-92; > 100 µM (inactive) in the experiment with RXF 393; > 100 µM (inactive) in the experiment on CCRF-CEM; > 100 µM (inactive) with OVCAR-5. The GI50 in the experiment with SF-268, in the experiment with A498, in the experiment with OVCAR-8 and with MOLT-4 was > 100 µM (inactive) throughout.

In the case of `CC1c2c(Cl)nc3ccccc3c2Oc2c1c(Cl)nc1ccccc21`, the GI50 is > 100 µM (inactive) in the experiment with SF-539; 30.3 µM (inactive) with SK-MEL-5; > 100 µM (inactive) in the experiment with SNB-19; > 100 µM (inactive) with SK-OV-3; 46.5 µM (inactive) in the experiment with HOP-92; 41.3 µM (inactive) in the experiment on RXF 393. The GI50 in the experiment with CCRF-CEM is > 100 µM (inactive); in the experiment on OVCAR-5 it was > 100 µM (inactive); in the experiment with SF-268, > 100 µM (inactive); with A498, > 100 µM (inactive); with NCI-H522, 43.8 µM (inactive); with OVCAR-8, 85.7 µM (inactive). Also, the GI50 with MOLT-4 is 31.2 µM (inactive).

For the compound `CC(C)(C)NNC(=O)/C(=C/c1ccc(Oc2ccc(Cl)c(Cl)c2)cc1)NC(=O)c1ccccc1`, the GI50 with SF-539 was > 100 µM (inactive); with HCT-15 it was above 100 µM; with SK-MEL-5, > 100 µM (inactive); in the experiment with SNB-19, > 100 µM (inactive); in the experiment with SK-OV-3, > 100 µM (inactive); in the experiment on HOP-92, > 100 µM (inactive). Further, the GI50 was > 100 µM (inactive) with RXF 393; 69.5 µM (inactive) in the experiment on CCRF-CEM; > 100 µM (inactive) in the experiment on OVCAR-5; > 100 µM (inactive) in the experiment on SF-268; > 100 µM (inactive) in the experiment with A498; > 100 µM (inactive) with OVCAR-4. Further, the GI50 was > 100 µM (inactive) with NCI-H522, > 100 µM (inactive) in the experiment on UACC-62, > 100 µM (inactive) with OVCAR-8 and 65 µM (inactive) in the experiment with MOLT-4.

`C[C@]12CC[C@H](OC3CCCCO3)CC1=CC[C@@H]1C2CC[C@]2(C)/C(=N/O)CCC12` (stereo not given in full): the GI50 is 47.1 µM (inactive) in the experiment with SF-539; 14.5 µM with HCT-15; 88.9 µM (inactive) with SK-MEL-5; 26.5 µM (inactive) with SNB-19; 34.9 µM (inactive) with SK-OV-3; 23.9 µM (inactive) with HOP-92. In addition, the GI50 was 23.2 µM (inactive) with RXF 393; 19.4 µM (inactive) with OVCAR-5; > 100 µM (inactive) with A498; 16.4 µM (inactive) in the experiment with OVCAR-4; 16.9 µM (inactive) in the experiment on NCI-H522; 42.7 µM (inactive) in the experiment with UACC-62. The GI50 was 19.2 µM (inactive) with OVCAR-8 and 10.9 µM (inactive) in the experiment with MOLT-4.

Take `O=C(N/N=C/c1ccccc1O)N/N=C/c1ccccc1O`: the GI50 was > 100 µM (inactive) in the experiment on SF-539; above 100 µM in the experiment with HCT-15; > 100 µM (inactive) in the experiment on SNB-19; > 100 µM (inactive) in the experiment on SK-OV-3; > 100 µM (inactive) in the experiment with HOP-92; > 100 µM (inactive) in the experiment on RXF 393. Further, the GI50 in the experiment with CCRF-CEM, in the experiment on OVCAR-5, with SF-268, with A498, with OVCAR-4 and in the experiment on NCI-H522 was > 100 µM (inactive) in each case. Moreover, the GI50 in the experiment with UACC-62, in the experiment with OVCAR-8 and in the experiment with MOLT-4 was > 100 µM (inactive) in each case.

Turning to `COP1(=O)Oc2ccccc2C(=O)C(C(F)(F)F)(C(F)(F)F)O1` (stereo not given), the GI50 in the experiment with SF-539 is > 100 µM (inactive); in the experiment with HCT-15 it was above 100 µM; with SK-MEL-5, > 100 µM (inactive); with SNB-19, > 100 µM (inactive); with SK-OV-3 it was > 100 µM (inactive); in the experiment with HOP-92, 56.8 µM (inactive). For the same compound, the GI50 with RXF 393, with CCRF-CEM, in the experiment on OVCAR-5, with SF-268, in the experiment with A498 and in the experiment on OVCAR-4 was > 100 µM (inactive) in each case. For the same compound, the GI50 in the experiment on NCI-H522, in the experiment on UACC-62, in the experiment with OVCAR-8 and in the experiment on MOLT-4 was > 100 µM (inactive) each time.

`COC1CCC2C(NS(=O)(=O)c3ccc(C)cc3)CCCC2O1.Cc1ccc(S(=O)(=O)NC(C)(C)C=O)cc1` (stereo not given): the GI50 was 20 µM (inactive) in the experiment with SF-539; 15.6 µM with HCT-15; 7.76 µM (inactive) in the experiment on SK-MEL-5; 16.1 µM (inactive) with SNB-19; > 34.5 µM (inactive) with SK-OV-3; 3.66 µM (inactive) with HOP-92. Besides, the GI50 was 11.4 µM (inactive) with RXF 393; 10.2 µM (inactive) in the experiment on CCRF-CEM; > 34.5 µM (inactive) in the experiment with OVCAR-5; > 34.5 µM (inactive) in the experiment with SF-268; > 34.5 µM (inactive) in the experiment with A498; 12.6 µM (inactive) with OVCAR-4. In addition, the GI50 was 9.02 µM (inactive) with NCI-H522, 33 µM (inactive) in the experiment on UACC-62, 16.1 µM (inactive) with OVCAR-8 and 8.3 µM (inactive) with MOLT-4.

In the case of `O=C(NO)c1ccc(O)c(O)c1`, the GI50 was > 100 µM (inactive) with SF-539; 98.4 µM in the experiment on HCT-15; > 100 µM (inactive) in the experiment on SK-MEL-5; > 100 µM (inactive) in the experiment with SNB-19; > 100 µM (inactive) in the experiment with SK-OV-3; > 100 µM (inactive) in the experiment on HOP-92. For the same compound, the GI50 was > 100 µM (inactive) in the experiment with RXF 393; 42.1 µM (inactive) with CCRF-CEM; 94.6 µM (inactive) in the experiment on OVCAR-5; > 100 µM (inactive) in the experiment on SF-268; > 100 µM (inactive) in the experiment on A498; > 100 µM (inactive) with OVCAR-4. Further, the GI50 in the experiment with NCI-H522 is 79.4 µM (inactive); in the experiment with UACC-62, > 100 µM (inactive); with OVCAR-8, 79.1 µM (inactive); in the experiment with MOLT-4 it was 93.3 µM (inactive).

Consider `CC(C)[C@@H](C(=O)N(C)[C@H](C(=O)N1CCC[C@H]1C(=O)OCc1ccccc1)C(C)C)N(C)C(=O)C(Cc1ccccc1)N(C)C(=O)[C@H](NC(=O)OC(C)(C)C)C(C)C` (stereo not given in full) (Boc-[dV][ξNMeF][NMeV][NMeV]P-OBn), for which the GI50 in the experiment with SF-539 is > 31.6 µM (inactive); with HCT-15, above 31.6 µM; in the experiment with SK-MEL-5, 15.6 µM (inactive); in the experiment with SNB-19, > 31.6 µM (inactive); in the experiment with SK-OV-3 it was > 31.6 µM (inactive); in the experiment on HOP-92, 8.34 µM (inactive). Besides, the GI50 with RXF 393, in the experiment with CCRF-CEM, in the experiment on OVCAR-5, in the experiment on SF-268, in the experiment on A498 and in the experiment on UACC-62 was > 31.6 µM (inactive) in each case. Further, the GI50 in the experiment on OVCAR-8 was > 31.6 µM (inactive); with MOLT-4, 10.7 µM (inactive).
